Source: the supplement of paper PMC10307832

How the values were obtained:
Test in all cases: relative viability (nuclei count vs DMSO), 5 days (fraction); higher = more cells survive
[1] = compound: C1=CC2=C(C=CC(=C2)C=C3C(=O)NC(=NCC4=CC=CS4)S3)N=C1 [RO-3306] + CS(=O)(=O)CCNCc1ccc(-c2ccc3ncnc(Nc4ccc(OCc5cccc(F)c5)c(Cl)c4)c3c2)o1 [Lapatinib] (partner 2 µM)
Summary of the method: (§1)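 Lung cancer cell lines in 1536-well plates got either a single drug or a fixed anchor-drug dose together with five library-drug doses (not always all listed) in √10 steps, by pin tool, on the day after seeding. Nuclei were counted after 5 days, and relative viability is the treated-to-vehicle ratio of nuclei counts. Values are medians of duplicate plates.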

[2] = compound: O=S(=O)(c1ccccc1)N(CC(F)(F)F)c1ccc(C(O)(C(F)(F)F)C(F)(F)F)cc1 + CC(=O)Nc1cccc(-n2c(=O)n(C3CC3)c(=O)c3c(Nc4ccc(I)cc4F)n(C)c(=O)c(C)c32)c1 [Trametinib] (partner 0.02 µM)
Summary of the method: as §1

[3] = compound: O=S(=O)(c1ccccc1)N(CC(F)(F)F)c1ccc(C(O)(C(F)(F)F)C(F)(F)F)cc1 + CS(=O)(=O)N1CCN(Cc2cc3nc(-c4cccc5[nH]ncc45)nc(N4CCOCC4)c3s2)CC1 [Pictilisib] (partner 1 µM)
Summary of the method: as §1

[4] = compound: O=S(=O)(c1ccccc1)N(CC(F)(F)F)c1ccc(C(O)(C(F)(F)F)C(F)(F)F)cc1 + C[C@@H](Oc1cc(-c2cnn(C3CCNCC3)c2)cnc1N)c1c(Cl)ccc(F)c1Cl [Crizotinib] (partner 1 µM)
Summary of the method: as §1

[5] = compound: O=S(=O)(c1ccccc1)N(CC(F)(F)F)c1ccc(C(O)(C(F)(F)F)C(F)(F)F)cc1 + Nc1nc2[nH]cc(CCc3ccc(C(=O)N[C@@H](CCC(=O)O)C(=O)O)cc3)c2c(=O)[nH]1 [Pemetrexed] (partner 0.2 µM)
Summary of the method: as §1

[6] = compound: O=S(=O)(c1ccccc1)N(CC(F)(F)F)c1ccc(C(O)(C(F)(F)F)C(F)(F)F)cc1 + O=C(CCCCCCC(=O)Nc1ccccc1)NO [Vorinostat] (partner 1 µM)
Summary of the method: as §1

Cell Line | relative viability ([1]; first compound 0.01 µM) | relative viability ([1]; first compound 0.03162 µM) | relative viability ([1]; first compound 0.1 µM) | relative viability ([1]; first compound 0.3162 µM) | relative viability ([1]; first compound 1 µM) | relative viability ([2]; first compound 0.8 µM) | relative viability ([2]; first compound 2.53 µM) | relative viability ([2]; first compound 8 µM) | relative viability ([3]; first compound 0.8 µM) | relative viability ([3]; first compound 2.53 µM) | relative viability ([3]; first compound 8 µM) | relative viability ([4]; first compound 0.8 µM) | relative viability ([4]; first compound 2.53 µM) | relative viability ([4]; first compound 8 µM) | relative viability ([5]; first compound 0.8 µM) | relative viability ([5]; first compound 2.53 µM) | relative viability ([5]; first compound 8 µM) | relative viability ([6]; first compound 0.8 µM) | relative viability ([6]; first compound 2.53 µM) | relative viability ([6]; first compound 8 µM)
EMC-BAC-2 | 0.943 | 0.722 | 0.916 | 0.892 | 0.871 | 0.813 | 0.735 | 0.758 | 0.626 | 0.561 | 0.634 | 0.844 | 0.731 | 0.577 | 0.402 | 0.401 | 0.416 | 0.336 | 0.296 | 0.467
NCI-H2085 | 0.726 | 0.746 | 0.798 | 0.727 | 0.757 | 0.471 | 0.496 | 0.472 | 0.428 | 0.543 | 0.455 | 0.836 | 0.852 | 0.844 | 0.751 | 0.8 | 0.869 | 0.785 | 0.748 | 0.711
HCC-78 | 0.733 | 0.704 | 0.732 | 0.728 | 0.583 | 0.666 | 0.575 | 0.689 | 0.157 | 0.193 | 0.252 | 0.375 | 0.285 | 0.334 | 1.01 | 0.915 | 0.967 | 0.489 | 0.414 | 0.425
A-427 | 1.08 | 0.986 | 1.05 | 1.03 | 0.448 | 0.722 | 0.645 | 0.682 | 0.708 | 0.677 | 0.822 | 0.929 | 0.793 | 0.872 | 0.939 | 0.937 | 1.05 | 0.85 | 0.803 | 0.812
NCI-H1993 | – | 0.747 | 0.74 | 0.795 | 0.839 | 0.554 | 0.457 | 0.478 | 0.772 | 0.782 | 1.07 | 0.855 | 0.686 | 0.799 | 0.616 | 0.533 | 0.614 | 0.859 | 0.575 | 0.836
NCI-H1975 | 1.05 | 0.559 | 0.787 | 0.919 | 0.752 | 0.341 | 0.338 | 0.316 | 0.28 | 0.264 | 0.249 | 1.03 | 1.01 | 0.919 | 0.358 | 0.293 | 0.3 | 0.752 | 0.752 | 0.65
